Experimental data from patent US9676704B2, “Pesticidal compositions and processes related thereto” (Dow AgroSciences LLC, priority 2014, dated 2017).
Read-outs that look alike come from different tables or passages of the source.

Columns and labels:
[1] = system: Beet Armyworm (BAW); test: Bioassays on BAW, 128-well diet tray assay; assay type: in vivo; details: Spodoptera exigua; for mortality at 50 µg/cm2: 168 h, read-out: BAW % Control (or Mortality) rating
In short: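 Test compound was applied at 50 μg/cm^2 in 90:10 acetone-water to the artificial diet surface and dried, with eight wells per compound. One to five second-instar beet armyworm larvae were placed per well and held at 25 °C, 14:10 light-dark, for five to seven days. Percent mortality was averaged over the wells.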

[2] = system: Cabbage Looper (CL); test: Bioassays on CL, 128-well diet tray assay; assay type: in vivo; details: Trichoplusia ni; for mortality at 50 µg/cm2: 168 h, read-out: CL % Control (or Mortality) rating
In short: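 Second-instar larvae, one to five per well, were placed on artificial diet treated with 50 μg/cm^2 compound (in 90:10 acetone-water) and dried, with eight wells per compound. Trays were held at 25° C, 14:10 light-dark, for five to seven days. Percent mortality was scored per well and averaged.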

[3] = system: Green Peach Aphid (GPA); test: Bioassays on Green Peach Aphid, cabbage seedling foliar spray; assay type: in vivo; details: Myzus persicae, 72 h, read-out: GPA % Control (or Mortality) rating
Procedure: Cabbage seedlings grown in 3-inch pots, with 2-3 small (3-5 cm) true leaves, were used as test substrate. The seedlings were infested with 20-50 GPA (wingless adult and nymph stages) one day prior to chemical application. Four pots with individual seedlings were used for each treatment. Test compounds (2 mg) were dissolved in 2 mL of acetone/MeOH (1:1) solvent, forming stock solutions of 1000 ppm test compound. The stock solutions were diluted 5× with 0.025% Tween 20 in water to obtain the solution at 200 ppm test compound. A hand-held aspirator-type sprayer was used for spraying a solution to both sides of […] leaves until runoff. Reference plants (solvent check) were sprayed with the diluent only containing 20% by volume of acetone/MeOH (1:1) solvent. Treated plants were held in a holding room for three days at approximately 25° C. and ambient relative humidity (RH) prior to grading. Evaluation was conducted by counting the number of live aphids per plant under a microscope. Percent Control was measured by using Abbott's correction formula (W. S. Abbott, “A Method of Computing the Effectiveness of an Insecticide” J. Econ. Entomol. 18 (1925), pp. 265-267) as follows. Corrected % Control=100*(X−Y)/X where X=No. of live aphids on solvent check plants and Y=No. of live aphids on treated plants. The results are indicated in the table entitled “Table ABC: Assay Results (F)” and “Table ABCD: Assay Results (C)” (See Table Section).

[4] = system: Yellow Fever Mosquito (YFM); assay type: in vivo, Aedes aegypti; details: 15 μL of diluted 4000 ppm master solution per well, about 1 day-old larvae, 3 days
In short: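 About 1-day-old Aedes larvae in liver-powder water were exposed to compound diluted from 4000 ppm DMSO master stocks in water:acetone. Plates held 3 days at room temperature under a non-evaporative lid; wells were then scored for mortality, 6 replicates per compound.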

[5] = 50 μg/cm^2 on artificial diet, second instar larvae, five to seven days, 25° C.

Compound	mortality at 50 µg/cm2 [1]	mortality at 50 µg/cm2 [2]	mortality at 200 ppm ([3]; foliar)	YFM % Control (or Mortality) rating [4]	mortality at 50 µg/cm2 [1, 5]	mortality at 0.05 µg/cm2 ([1]; 0.05 μg/cm^2, read-out: BAW Percent control (or mortality))	mortality at 0.5 µg/cm2 ([1]; 0.5 μg/cm^2, read-out: BAW Percent control (or mortality))	mortality at 5 µg/cm2 ([1]; 5 μg/cm^2, read-out: BAW Percent control (or mortality))	mortality at 50 µg/cm2 [2, 5]	mortality at 0.05 µg/cm2 ([2]; 0.05 μg/cm^2, read-out: CL Percent control (or mortality))	mortality at 0.5 µg/cm2 ([2]; 0.5 μg/cm^2, read-out: CL Percent control (or mortality))	mortality at 5 µg/cm2 ([2]; 5 μg/cm^2, read-out: CL Percent control (or mortality))	mortality at 200 ppm ([3]; 200 ppm foliar spray on cabbage seedlings, three days, Abbott corrected % control)
CN(CCNC(=O)c1ccc(/C=C/C(c2cc(Cl)c(Cl)c(Cl)c2)C(F)(F)F)cc1C(F)(F)F)C(=O)OC(C)(C)C (centres unmarked) [Compound C113, (E)-tert-butyl methyl(2-(4-(4,4,4-trifluoro-3-(3,4,5-trichlorophenyl)but-1-en-1-yl)-2-(trifluoromethyl)benzamido)ethyl)carbamate]	50 to 100%	50 to 100%	0%	A (80-100)	–	–	–	–	–	–	–	–	–
C[C@H](NC(=O)CC(F)(F)F)NC(=O)c1ccc(/C=C/C(c2cc(Cl)c(Cl)c(Cl)c2)C(F)(F)F)cc1C(F)(F)F (stereo partly drawn) [Compound F2, 4-((E)-4,4,4-trifluoro-3-(3,4,5-trichlorophenyl)but-1-en-1-yl)-2-(trifluoromethyl)-N—((R)-1-(3,3,3-trifluoropropanamido)ethyl)benzamide]	–	–	–	A (80-100)	50 to 100%	100%	100%	100%	50 to 100%	100%	100%	100%	0%
